Patent US12129254B1, “Pyrimido[6′,1′:2,3]imidazo[4,5-b][1,6]naphthyridine compounds as CK2 inhibitors” (KING FAISAL UNIVERSITY, priority 2023, dated 2024)

Legend:
H1299 (lung) = assay: In vitro cytotoxic activity (MTT) assay, H1299; format: cell-based; conditions: Homo sapiens, NCI-H1299; H1299 (lung) cells, exposed for 96 hours; read-out: IC50, concentration of compound eliciting a 50% inhibition of cell proliferation
Protocol: (§1) Compounds 1-16 were screened for their in vitro cytotoxic activity utilizing a 3-(4,5-dimethyl-thiazol-2-yl)-2,5-diphenyltetrazolium bromide (MTT) assay against selected cancer human cell lines consisting of PC3 (prostate), HCT116 (colon), A375 (melanoma), H1299 (lung), MIAPaCa-2 (pancreas), HL60 (leukemia), MCF7 (breast), MDA-MB-231 (breast) (T. Mosmann, J. Immunol. Meth., 1983, 65, 55-63). The cells were cultured at 37° C. in RMPI1640 medium supplemented with 10% fetal bovine serum, 50 IU/mL penicillin, and 50 μg/mL streptomycin in a 5% CO2 incubator. All cells were sub-cultured 3 times/week by trypsinisation. Viable cells were seeded and allowed to adhere for 12 h before a test drug was added in 96-well plates at an initial density of 1.0×10^5 cells/mL. Tumour cell lines were separately exposed to various concentrations of the tested compounds followed by incubation at a temperature of 37° C. during 96 h inside a medium of fresh RMPI 1640. Cells were subsequently incubated at 37° C. using MTT at 0.5 mg/mL during 4 h. After removal of supernatant, formazan crystals were dissolved in isopropanol and the optical density was measured at 570 nm. CX-4945 was used as a positive control.

[1] = biological target: T1, recombinant human CK2 (RRββ-holoenzyme) (Homo sapiens, UniProt P68400); assay: CK2 Kinase Assay (radiometric, [γ-33P] ATP); format: biochemical; conditions: final ATP concentration 15 μM, 10 min at 30° C., eight concentrations; read-out: protein kinase CK2 IC50
T1 construct: purchased Millipore
Protocol: CK2 Kinase Assay was conducted using the protocol as described in Pierre F. et al; J. Med. Chem. 2011, 54, 635-654. The tested compounds in aqueous solution were added at a volume of 10 μL to a reaction mixture comprising 10 μL of assay dilution buffer (ADB; 20 mM MOPS, pH 7.2, 25 mM β-glycerol phosphate, 5 mM EGTA, 1 mM sodium orthovanadate, and 1 mM dithiothreitol), 10 μL of substrate peptide (RRRDDDSDDD, dissolved in ADB at a concentration of 1 mM), 10 μL of recombinant human CK2 (RRββ-holoenzyme, 25 ng dissolved in ADB; Millipore). Reactions were initiated by the addition of 10 μL of ATP solution (90% 75 mMMgCl2, 75 μM ATP (final ATP concentration: 15 μM) dissolved in ADB; 10% [γ-33P] ATP (stock 1 mCi/100 μL; 3000 Ci/mmol (Perkin-Elmer) and maintained for 10 min at 30° C. The reactions were quenched with 100 μL of 0.75% phosphoric acid and then transferred to and filtered through a phosphor cellulose filter plate (Millipore). After washing each well five times with 0.75% phosphoric acid, the plate was dried under vacuum for 5 min and, following the addition of 15 μL of scintillation fluid to each well, the residual radioactivity was measured using a Wallac luminescence counter. The IC50 values were derived from eight concentrations of test inhibitors.

PC3 (prostate) = assay: In vitro cytotoxic activity (MTT) assay, PC3; format: cell-based; conditions: Homo sapiens, Prostate cell; PC3 (prostate) cells, exposed for 96 hours; read-out: IC50, concentration of compound eliciting a 50% inhibition of cell proliferation
Protocol: as §1

MDA-MB-231 (breast) = assay: In vitro cytotoxic activity (MTT) assay, MDA-MB-231; format: cell-based; conditions: Homo sapiens; MDA-MB-231 (breast) cells, exposed for 96 hours; read-out: IC50, concentration of compound eliciting a 50% inhibition of cell proliferation
Protocol: as §1

A375 (melanoma) = assay: In vitro cytotoxic activity (MTT) assay, A375; format: cell-based; conditions: Homo sapiens, A-375; A375 (melanoma) cells, exposed for 96 hours; read-out: IC50, concentration of compound eliciting a 50% inhibition of cell proliferation
Protocol: as §1

MIAPaCa-2 (pancreas) = assay: In vitro cytotoxic activity (MTT) assay, MIAPaCa-2; format: cell-based; conditions: Homo sapiens, MIA PaCa-2; MIAPaCa-2 (pancreas) cells, exposed for 96 hours; read-out: IC50, concentration of compound eliciting a 50% inhibition of cell proliferation
Protocol: as §1

HL60 (leukemia) = assay: In vitro cytotoxic activity (MTT) assay, HL60; format: cell-based; conditions: Homo sapiens, HL-60; HL60 (leukemia) cells, exposed for 96 hours; read-out: IC50, concentration of compound eliciting a 50% inhibition of cell proliferation
Protocol: as §1

HCT116 (colon) = assay: In vitro cytotoxic activity (MTT) assay, HCT116; format: cell-based; conditions: Homo sapiens, HCT-116; HCT116 (colon) cells, exposed for 96 hours; read-out: IC50, concentration of compound eliciting a 50% inhibition of cell proliferation
Protocol: as §1

MCF7 (breast) = assay: In vitro cytotoxic activity (MTT) assay, MCF7; format: cell-based; conditions: Homo sapiens; MCF7 (breast) cells, exposed for 96 hours; read-out: IC50, concentration of compound eliciting a 50% inhibition of cell proliferation
Protocol: as §1

T1 sequence (P68400 whole entry): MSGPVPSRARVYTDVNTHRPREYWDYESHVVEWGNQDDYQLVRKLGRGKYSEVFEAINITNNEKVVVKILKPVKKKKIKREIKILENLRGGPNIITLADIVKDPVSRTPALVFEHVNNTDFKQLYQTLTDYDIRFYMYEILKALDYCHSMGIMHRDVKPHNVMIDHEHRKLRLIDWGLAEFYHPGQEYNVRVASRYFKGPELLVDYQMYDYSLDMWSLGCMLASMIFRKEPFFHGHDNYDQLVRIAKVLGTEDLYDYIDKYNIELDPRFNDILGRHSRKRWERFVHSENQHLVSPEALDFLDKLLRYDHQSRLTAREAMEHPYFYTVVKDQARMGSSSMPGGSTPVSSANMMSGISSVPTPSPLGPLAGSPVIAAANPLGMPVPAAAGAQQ
T1 sequence (P67870 whole entry partner): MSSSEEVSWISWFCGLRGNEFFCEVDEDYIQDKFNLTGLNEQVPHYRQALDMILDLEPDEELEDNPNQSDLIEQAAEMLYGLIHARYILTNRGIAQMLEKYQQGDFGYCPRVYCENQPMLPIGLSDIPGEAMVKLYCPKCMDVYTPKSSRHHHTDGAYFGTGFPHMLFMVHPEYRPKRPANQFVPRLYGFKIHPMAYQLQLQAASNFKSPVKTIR

Work on Clc1cccc(Nc2c3cnccc3nc3c2nc2ccncn23)c1 [Compound 1, N-(3-chlorophenyl)pyrimido[6′,1′:2,3]imidazo[4,5-b][1,6]naphthyridin-12-amine] yielded an IC50 (H1299 (lung)) of 2500 nM, an IC50 [1] of 138 nM and an IC50 (PC3 (prostate)) of 2200 nM. The IC50 (MDA-MB-231 (breast)) was 4700 nM, the IC50 (A375 (melanoma)) was 3000 nM and the IC50 (MIAPaCa-2 (pancreas)) was 1400 nM. The IC50 (HL60 (leukemia)) was 3100 nM, the IC50 (HCT116 (colon)) was 1700 nM and the IC50 (MCF7 (breast)) was 5900 nM.
